In patent publication US5428041A, “Antihypercholesterolemic bis-trifluoromethyl-substituted imidazolines and derivatives thereof” (The Du Pont Merck Pharmaceutical Company, priority 1992, dated 1995):
Where a name gives a salt, the structure may show the parent alone. Read-outs that look alike come from different tables or passages of the source.

How the values were obtained:
[1] = target: T1, Acyl-CoA: Cholesterol Acyltransferase (ACAT) (Rattus norvegicus, UniProt Q7TQM4); assay: Inhibition of Acyl-CoA:Cholesterol Acyltransferase (ACAT) in hepatic microsomes; format: biochemical, Sprague Dawley rat
T1 construct: centrifuged at 105,000×g for 1 hour to pellet the microsomes; from tissue; host or cells: liver microsomes of fasted male Sprague Dawley rats
T1 sequence (Q7TQM4 1-524): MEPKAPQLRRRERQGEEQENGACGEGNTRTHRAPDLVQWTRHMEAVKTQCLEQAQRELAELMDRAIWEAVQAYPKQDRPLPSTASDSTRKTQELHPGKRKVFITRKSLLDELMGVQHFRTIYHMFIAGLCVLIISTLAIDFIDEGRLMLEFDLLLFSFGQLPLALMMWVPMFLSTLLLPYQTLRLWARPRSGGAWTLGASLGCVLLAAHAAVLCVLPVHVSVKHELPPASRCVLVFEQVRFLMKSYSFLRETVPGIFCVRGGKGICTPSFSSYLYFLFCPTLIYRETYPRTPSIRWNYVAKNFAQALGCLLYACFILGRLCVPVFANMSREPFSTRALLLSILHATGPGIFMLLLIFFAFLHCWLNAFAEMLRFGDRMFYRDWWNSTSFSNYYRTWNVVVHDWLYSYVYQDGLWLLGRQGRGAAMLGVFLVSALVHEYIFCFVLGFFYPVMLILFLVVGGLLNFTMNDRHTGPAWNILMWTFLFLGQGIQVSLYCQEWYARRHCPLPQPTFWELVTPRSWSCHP
Description: A. Assay of the Inhibition of Acyl-CoA: Cholesterol Acyltransferase (ACAT) in Hepatic Microsomes
The ability of the compounds to inhibit ACAT, the enzyme responsible for the intracellular synthesis of cholesteryl esters, was tested as follows. Male Sprague Dawley rates weighing 150-300 g were fed rat chow ad libitum. The animals were fasted for twenty-four hours prior to being sacrificed by decapitation. The livers were perfused in situ with 50 ml of cold 0.25M sucrose, excised and homogenized in three volumes of 0.1M phosphate buffer, pH 7.4, that contained 0.5 mM EDTA (ethylenediaminetetraacetic acid), 1.0 mM glutathione, 0.25M sucrose and 20 mM leupeptin. Microsomes were obtained by differential centrifugation; the supernatant from an initial spin at 15,000×g for 15 minutes was centrifuged at 105,000×g for 1 hour to pellet the microsomes. The microsomes were suspended in homogenization buffer, reisolated by centrifugation, and stored at -70° C. Microsomes were used within one month of preparation.
The control assay in a final volume of 200 μl consisted of 200 μg of microsomal protein, 75 μM ^14 C-oleoyl-CoA (10,000 dpm/nmol) in 0.1M phosphate, pH 7.4, that contained 1 mM glutathione. Compounds were added in 5-10 μl of DMSO (dimethyl sulfoxide or ethanol) and additional controls were run with DMSO or ethanol only. All components, except the oleoyl-CoA, were preincubated for 15 min. at 37° C. prior to the initiation of the reaction by the addition of oleoyl CoA. The assay was terminated after 10 min by the addition of 4 ml of chloroform:methanol (2:1, v/v). 20,000 dpm of ^3 H-cholesteryl oleate and 10 μg of unlabeled cholesteryl oleate and oleic acid were added as an internal standard and carrier, respectively. After allowing 10 min. for lipid extraction, 0.8 ml of deionized water was added to separate the solution into two phases. The lower chloroform phase was collected, dried under nitrogen and resuspended in 100 μl of chloroform. The sample containing the neutral lipids was spotted onto a Gelman ITLC-SA polysilicic acid gel-impregnated sheet, which was developed using a hexane: diethyl ether: acetic acid (170:30:1 v/v/v) mobile phase. The lipids were visualized by their interaction with iodine vapor and the cholesteryl ester spot was scraped into a scintillation vial and counted. The specific activity of ACAT in the control incubation averaged 260 pmol/min/mg microsomal protein. The inhibition of ACAT activity by the compounds is shown in Table 7; the data are expressed as the concentration at which ACAT activity is inhibited by 50% (IC50).

[2] = system: murine macrophage-like cell line J744.A1; assay: Inhibition of cholesterol esterification in mammalian cells (macrophage); format: cell-based; conditions: Mus musculus; J744.A1 macrophage-like cells loaded with ac-LDL, 14C oleic acid
Description: B. Assay of the Inhibition of Cholesterol Esterification in Mammalian Cells The esterification of cholesterol was determined in the murine macrophage-like cell line J744.A1. Cells were seeded in 35 mm wells at a density of 300,000 cells per well in 2 mls of Dulbecco's Modified Eagle Medium (DMEM) supplemented with 10% fetal bovine serum (FBS). Cells were incubated at 37° C. in an atmosphere of 5% CO2 and 93% humidity. After 24 hours the media was changed to 0.68 mls 10% FBS-DMEM containing 34 μg of acetylated human low density lipoprotein (ac-LDL) to increase the intracellular concentration of cholesterol and promote esterification. At 41 hours, various inhibitors were added to the cells in DMSO (10 μl/ml maximum). At 43 hours, the cells were pulsed with 0.1 mM ^14 C oleic acid (10,000 dpm/nmol) complexed with BSA (bovine serum albumin) to follow cholesterol ester formation. The experiment was terminated at 45 hours by washing the monolayers 3 times with 3 ml of Tris-buffered saline at 4° C. The lipids were extracted by incubating the monolayers with 1.5 ml of hexane: isopropanol (3:2, v/v) for 30 min. under gentle agitation. During this period, 10,000 dpm ^3 H-cholesteryl linoleate and 10 μg of cholesteryl oleate were added as an internal standard and carrier respectively. The organic solvent was remoted and the cells were washed with an additional 1.0 ml of hexane: isopropanol which was combined with the original extract. The cells were allowed to dry overnight, digested with 1.5 ml of 0.2 N sodium hydroxide for 1 hour and an aliquot of the solubilized protein used for protein determination using the Lowry method. […] Individual lipids were visualized with iodine and the cholesteryl ester spot cut out and transferred to scintillation vials to determine the amount of radioactivity.

[3] = rat hepatic microsomes, 14C-oleoyl-CoA, 37° C., pH 7.4, read-out: In Vitro ACAT IC50

| Compound | IC50 [1, 3] | IC50 [2] | IC50 [1] |
| --- | --- | --- | --- |
| CN(C(=O)c1ccc(-c2ccccc2)cc1)C1N(C)C(c2ccc(F)cc2)=NC1(C(F)(F)F)C(F)(F)F (stereo not drawn) [Example 15, N-[4,4-bis(trifluoromethyl)-2-(4-fluorophenyl)-4,5-dihydro-1-methyl-1 H-imidazol-5-yl]-N-methyl-[1,1'-biphenyl]-4-carboxamide] | 17 µM | 11 µM |  |
| CN1C(c2ccc(F)cc2)=NC(C(F)(F)F)(C(F)(F)F)C1=NC(=O)c1ccc(F)cc1 [Example 2, N-[4,4-bis(trifluoromethyl)-2-(4-fluorophenyl)-4,5-dihydro-1-methyl-1H-imidazol-5-ylidene]-4-fluoro-benzamide] | 20 µM | > 100 µM |  |
| CN1C(c2ccc(F)cc2)=NC(C(F)(F)F)(C(F)(F)F)C1NC(=O)c1ccc(F)cc1 (stereo not drawn) [Example 10, N-[4,4-bis-(trifluoromethyl)-2-(4-fluorophenyl)-4,5-dihydro-1-methyl-1H-imidazol-5-yl]-4-fluorobenzamide] | 41 µM |  |  |
| CN(C(=O)c1ccc(F)cc1)C1N(C)C(c2ccc(F)cc2)=NC1(C(F)(F)F)C(F)(F)F (stereo not drawn) [Example 10A, N-[4,4-bis(trifluoromethyl)2-(4-fluorophenyl)-4,5-dihydro-1-methyl-1H-imidazol-5-yl]-4-fluorophenyl-N-methylbenzamide] | 22 µM | 105 µM |  |
| CCCCOc1ccc(C(=O)N(C)C2N(C)C(c3ccc(F)cc3)=NC2(C(F)(F)F)C(F)(F)F)cc1 (stereo not drawn) [Example 11, N-[4,4-bis(trifluoromethyl)-2-(4-fluorophenyl)-4,5-dihydro-1-methyl-1H-imidazol-5-yl]-4-butoxy-N-methylbenzamide] | 2 µM | 14 µM |  |
| CN1C(=O)C(C(F)(F)F)(C(F)(F)F)N=C1c1ccc(F)cc1 [Example 123, 2-(4-fluorophenyl)-3,5-dihydro-3-methyl-4,4-bis(trifluoromethyl)-4H-imidazol-4-one] | > 100 µM |  |  |
| CN(C(=O)c1ccc(C(C)(C)C)cc1)C1N(C)C(c2ccc(F)cc2)=NC1(C(F)(F)F)C(F)(F)F (stereo not drawn) [Example 13, N-[4,4-bis(trifluoromethyl)-2-(4-fluorophenyl)-4,5-dihydro-1-methyl-1H-imidazol-5-yl]-4-(1,1-dimethylethyl)-N-methylbenzamide] | 4 µM | 18 µM |  |
| CCCCCCCCNC(=O)N(C)C1N(C)C(c2ccc(F)cc2)=NC1(C(F)(F)F)C(F)(F)F (stereo not drawn) [Example 29, N-[4,4-bis(trifluoromethyl)-2-(4-fluorophenyl)-4,5-dihydro-1-methyl-1H-imidazol-5-yl]-N'-octyl-N-methylurea hydrochloride] | 16 µM |  |  |
| CN(C(=O)C12CCC(C)(C(=O)O1)C2(C)C)C1N(C)C(c2ccc(F)cc2)=NC1(C(F)(F)F)C(F)(F)F (stereo not drawn) [Example 26] | 45 µM | 96 µM |  |
| CN1C(=CC(=O)c2ccc(F)cc2)C(C(F)(F)F)(C(F)(F)F)N=C1c1ccc(F)cc1 [Example 96B, 2-[4,4-bis(trifluoromethyl)-2-(4-fluorophenyl)-4,5-dihydro-1-methyl-1H-imidazol-5-ylidene]-1-(4-fluorophenyl)-1-ethanone] | 19 µM |  |  |
| CCCCCCCCCCCC(=O)N(C)C1N(C)C(c2ccc(F)cc2)=NC1(C(F)(F)F)C(F)(F)F (stereo not drawn) [Example 17] | 6 µM |  |  |
| Cc1ccc(OC(=O)N=C2N(C)C(c3ccc(C)cc3)=NC2(C(F)(F)F)C(F)(F)F)cc1 [Example 122] |  |  | 49 µM |
| COc1ccc(OC(=O)N=C2N(C)C(c3ccc(OC)cc3)=NC2(C(F)(F)F)C(F)(F)F)cc1 [Example 121] |  |  | 64 µM |
| CN(C(=O)Nc1ccc(F)cc1F)C1N(C)C(c2ccc(F)cc2)=NC1(C(F)(F)F)C(F)(F)F (stereo not drawn) [Example 28, N-[4,4-bis(trifluoromethyl)-2-(4-fluorophenyl)-4,5-dihydro-1-methyl-1H-imidazol-5-yl]-N'-2,4-difluorophenyl-N-methylurea] | 22 µM |  |  |
| COc1ccc(C2=NC(C(F)(F)F)(C(F)(F)F)C(N(C)C(=O)CCCC(C)C)N2C)cc1 (stereo not drawn) [Example 34, N-[4,4-bis(trifluoromethyl)-2-(4-methoxyphenyl)-4,5-dihydro-1-methyl-1H-imidazol-5-yl]-N,5-dimethylhexanamide hydrochloride] | 9 µM |  |  |

More lines, in order of falling IC50 [1, 3], values ahead:

| IC50 [1, 3] | IC50 [2] | Compound | IC50 [1] |
| --- | --- | --- | --- |
| 6 µM |  | CCOc1ccc(C(=O)NC2N(C)C(c3ccc(F)cc3)=NC2(C(F)(F)F)C(F)(F)F)cc1 (stereo not drawn) [Example 30, N-[4,4-bis(trifluoromethyl)-2-(4-fluorophenyl)-4,5-dihydro-1-methyl-1H-imidazol-5-yl]-4-ethoxybenzamide] |  |
| 6 µM |  | COc1ccc(C(=O)N(C)C2N(C)C(c3ccc(F)cc3)=NC2(C(F)(F)F)C(F)(F)F)cc1 (stereo not drawn) [Example 12, N-[4,4-bis(trifluoromethyl)-2-(4-fluorophenyl)-4,5-dihydro-1-methyl-1H-imidazol-5-yl]-4-methoxy-N-methylbenzamide] |  |
| 4 µM |  | CC(C)CCCC(=O)N(C)C1N(C)C(c2ccc(F)cc2)=NC1(C(F)(F)F)C(F)(F)F (stereo not drawn) [Example 18, N-[4,4-bis(trifluoromethyl)-2-(4-fluorophenyl)-4,5-dihydro-1-methyl-1H-imidazol-5-yl]-N,5-dimethyl-hexanamide hydrochloride] |  |
| 3 µM | 16 µM | CC(C)c1ccc(NC(=O)N(C)C2N(C)C(c3ccc(F)cc3)=NC2(C(F)(F)F)C(F)(F)F)cc1 (stereo not drawn) [Example 27, N-[4,4-bis(trifluoromethyl)-2-(4-fluorophenyl)-4,5-dihydro-1-methyl-1H-imidazol-5-yl]-N'-4-isopropylphenyl-N-methylurea] |  |
| 2 µM | 17 µM | CN1C(c2ccc(N3CCCCC3)cc2)=NC(C(F)(F)F)(C(F)(F)F)C1NC(=O)c1ccc(F)cc1 (stereo not drawn) [Example 32, N-[4,4-bis(trifluoromethyl)-4,5-dihydro-1-methyl-2-[4-(1-piperidinyl)phenyl]-1H-imidazol-5-yl]-4-fluorobenzamide] |  |
| 1.91 µM | 34 µM | CN(C(=O)c1ccc(F)cc1)C1N(C)C(c2ccc(C#N)cc2)=NC1(C(F)(F)F)C(F)(F)F (stereo not drawn) [Example Q, N-[4,4-bis(trifluoromethyl)-2-(4-cyanophenyl)-4,5-dihydro-1-methyl-1H-imidazol-5-yl]-N-methyl-4-fluorobenzamide] |  |
